Experimental data from patent US20240082228A1, “SARS-COV-2 THERAPEUTICS” (priority 2021, published 2024).
Values joined by “and” are separate entries in the source; they are usually repeats but may differ in a detail not shown here. Equal entries are not always repeated. Where two headings read alike, the source gives them in different places.

Experiments:
SARS-CoV-2 = test: microbe, parasite or virus in culture; type: cell-based; details: for % Infection (1 uM) / % Infection (5 uM): single replicate of triplicate; for Normalized Infection (1 uM) / log2FC Infection (1 uM) / Normalized Infection (5 uM) / log2FC Infection (5 uM) / activity at 1 µM / activity at 5 µM: single replicate, relative to negative control DMSO; for activity at 1 µM: Severe acute respiratory syndrome coronavirus 2, 1 uM, read-out: Normalized Infection (1 uM); for activity at 5 µM: Severe acute respiratory syndrome coronavirus 2, 5 uM, read-out: Normalized Infection (5 uM)
[1] = for Average Cell Number (1 uM) / Cell Number (1 uM) / Normalized Cell Number (1 uM): compound at 1 uM; for Average Cell Number (1 uM) / Average Cell Number (5 uM): average of normalized cell number, n=3, relative to DMSO; for Cell Number (1 uM) / Normalized Cell Number (1 uM) / Cell Number (5 uM) / Normalized Cell Number (5 uM): single replicate; for Cell Number (1 uM) / Cell Number (5 uM): raw cell count; for Normalized Cell Number (1 uM) / Normalized Cell Number (5 uM): relative to negative control DMSO; for Average Cell Number (5 uM) / Cell Number (5 uM) / Normalized Cell Number (5 uM): compound at 5 uM
[2] = 1 uM, average log2FC infection (n=3) relative to DMSO
[3] = 5 uM, average log2FC infection (n=3) relative to DMSO

SMILES	HIT (2 Std, 1 uM) (SARS-CoV-2; 1 uM)	HIT (SARS-CoV-2; overall, 1 or 5 uM)	Average Infection (1 uM) (SARS-CoV-2; [2])	Average Infection (5 uM) (SARS-CoV-2; [3])	activity at 1 µM (SARS-CoV-2) [%]	activity at 5 µM (SARS-CoV-2) [%]	Toxic (1 uM) [1]	Toxic (5 uM) [1]	Average Cell Number (1 uM) [1]	Cell Number (1 uM) [1]	Normalized Cell Number (1 uM) [1]	Average Cell Number (5 uM) [1]	Cell Number (5 uM) [1]	Normalized Cell Number (5 uM) [1]	HIT (2 Stdv, 5 uM) (SARS-CoV-2; 5 uM)	other results
O=C(c1ccc(F)cc1)N1CCC[C@H](c2nc(-c3ccc(F)cc3)no2)C1 [ADX-47273, adx-47273]	HIT	Yes	–	–	–	–	–	–	–	–	–	–	–	–	–	Average Infection (1 uM) (SARS-CoV-2): −0.4315; Average Infection (5 uM) (SARS-CoV-2): −0.3579; % Infection (1 uM) (SARS-CoV-2; 1 uM): 21.77% and 18.58% and 18.27%; Normalized Infection (1 uM) (SARS-CoV-2; 1 uM): 0.8288 and 0.7074 and 0.6954; log2FC Infection (1 uM) (SARS-CoV-2; 1 uM): −0.271 and −0.4995 and −0.524; % Infection (5 uM) (SARS-CoV-2; 5 uM): 14.06% and 10.49% and 11.77%; Normalized Infection (5 uM) (SARS-CoV-2; 5 uM): 0.9128 and 0.681 and 0.7644; log2FC Infection (5 uM) (SARS-CoV-2; 5 uM): −0.1316 and −0.5544 and −0.3876
CC1(C)S[C@@H]2[C@H](NC(=O)[C@H](N)c3ccccc3)C(=O)N2[C@H]1C(=O)O [Ampicillin, ampicillin]	HIT	Yes	−0.9564	−0.0334	48.2	102	0 (non-toxic (Normalized Cell number>0.65)	0 (non-toxic (Normalized Cell number>0.65)	0.694	3959 and 4296 and 3945	0.6756 and 0.7331 and 0.6732	0.9658	5481 and 5912 and 5777	0.9249 and 0.9976 and 0.9748	–	–
Nc1cc(C(F)(F)F)c(-c2nc(N3CCOCC3)nc(N3CCOCC3)n2)cn1 [Bimiralisib, bimiralisib]	HIT	Yes	−1.45	−4.123	–	5.11	0 (non-toxic (Normalized Cell number>0.65)	–	0.6927	3839 and 4405 and 3934	0.6551 and 0.7517 and 0.6713	0.4637	2795 and 2791 and 2658	0.4716 and 0.471 and 0.4485	HIT	–
c1cc(OCCN2CCCCC2)cc(-c2n[nH]c3ccc(-c4nc[nH]n4)cc23)c1 [CC-401, cc-401]	–	Yes	−0.3224	−0.828	86.2	58.4	0 (non-toxic (Normalized Cell number>0.65)	0 (non-toxic (Normalized Cell number>0.65)	0.8485	4691 and 5161 and 5065	0.8005 and 0.8807 and 0.8643	0.8935	4993 and 5513 and 5380	0.8425 and 0.9303 and 0.9078	HIT	–
CS(=O)(=O)N1CCc2c(-c3cnc(N)nc3)nc(N3CCOCC3)nc21 [CH5132799, ch5132799]	HIT	Yes	−1.059	−3.565	42.1	8.27	0 (non-toxic (Normalized Cell number>0.65)	–	0.6597	4526 and 3593 and 3479	0.7724 and 0.6131 and 0.5937	0.5239	3141 and 3289 and 2884	0.53 and 0.555 and 0.4867	HIT	–
CC(C)(C[C@H]1CN(S(=O)(=O)c2cccc(C(F)(F)F)c2)c2cc(-c3cc(F)cc(OC(F)F)c3)ccc2O1)C(=O)O [Cintirorgon, cintirorgon]	HIT	Yes	−0.8423	−0.109	53.8	–	0 (non-toxic (Normalized Cell number>0.65)	0 (non-toxic (Normalized Cell number>0.65)	0.7476	4247 and 4539 and 4357	0.7247 and 0.7746 and 0.7435	0.9874	5894 and 6058 and 5603	0.9946 and 1.022 and 0.9455	–	–
C[N+]12CCC(CC1)C(OC(=O)C(O)(c1ccccc1)c1ccccc1)C2 (stereo not drawn) [Clidinium, clidinium]	HIT	Yes	–	–	–	–	0 (non-toxic (Normalized Cell number>0.65)	0 (non-toxic (Normalized Cell number>0.65)	0.6841	3871 and 4256 and 3900	0.6606 and 0.7263 and 0.6655	0.9985	5211 and 6271 and 6270	0.8793 and 1.058 (2×)	–	Average Infection (1 uM) (SARS-CoV-2): −0.7651; Average Infection (5 uM) (SARS-CoV-2): −0.1069
CC(C)C[C@@H](NC(=O)[C@H](Cc1ccccc1)NC(=O)CNC(=O)[C@@H](C)NC(=O)[C@@H](N)Cc1ccc(O)cc1)C(=O)O [DADLE, L-Tyrosyl-D-alanylglycyl-L-phenylalanyl-D-leucine]	HIT	Yes	–	–	–	–	0 (non-toxic (Normalized Cell number>0.65)	0 (non-toxic (Normalized Cell number>0.65)	0.7534	4511 and 4466 and 4268	0.7698 and 0.7621 and 0.7283	0.9869	5991 and 5664 and 5891	1.011 and 0.9558 and 0.9941	–	Average Infection (1 uM) (SARS-CoV-2): −0.6223; Average Infection (5 uM) (SARS-CoV-2): −0.2501; % Infection (1 uM) (SARS-CoV-2; 1 uM): 17.22% and 16.52% and 17.46%; Normalized Infection (1 uM) (SARS-CoV-2; 1 uM): 0.6557 and 0.6291 and 0.6645; log2FC Infection (1 uM) (SARS-CoV-2; 1 uM): −0.6088 and −0.6686 and −0.5896; % Infection (5 uM) (SARS-CoV-2; 5 uM): 13.22% and 10.81% and 15.19%; Normalized Infection (5 uM) (SARS-CoV-2; 5 uM): 0.8586 and 0.7017 and 0.9867; log2FC Infection (5 uM) (SARS-CoV-2; 5 uM): −0.22 and −0.511 and −0.01933
O=C(O)CNC(=O)C1C(=O)N(C2CCCCC2)C(=O)N(C2CCCCC2)C1=O [Daprodustat, daprodustat]	HIT	Yes	–	–	57.7	–	0 (non-toxic (Normalized Cell number>0.65)	0 (non-toxic (Normalized Cell number>0.65)	0.7431	4292 and 4412 and 4360	0.7324 and 0.7529 and 0.744	0.9695	5964 and 5671 and 5601	1.006 and 0.9569 and 0.9451	–	Average Infection (1 uM) (SARS-CoV-2): −0.8526; Average Infection (5 uM) (SARS-CoV-2): −0.09093
C#C[C@]1(O)CC[C@H]2[C@@H]3CCC4=CCCC[C@@H]4[C@H]3C(=C)C[C@@]21CC [Desogestrel, desogestrel]	HIT	Yes	−0.4489	−0.1002	80.9	87	0 (non-toxic (Normalized Cell number>0.65)	0 (non-toxic (Normalized Cell number>0.65)	0.8768	5131 and 5212 and 5072	0.8756 and 0.8894 and 0.8655	0.9255	5708 and 5824 and 4922	0.9632 and 0.9828 and 0.8305	–	–
C#C[C@]1(O)CC[C@H]2[C@@H]3CCC4=CC(=O)CC[C@@H]4[C@H]3C(=C)C[C@@]21CC [Etonogestrel, etonogestrel]	HIT	Yes	−0.4065	−1.187	72	–	0 (non-toxic (Normalized Cell number>0.65)	–	0.734	4255 and 4398 and 4251	0.7261 and 0.7505 and 0.7254	0.5829	–	–	HIT	–
CS(=O)(=O)N1CCN(Cc2cc3nc(-c4cccc5[nH]ncc45)nc(N4CCOCC4)c3s2)CC1 [GDC-0941, pictilisib]	HIT	Yes	−2.374	−2.82	14.6	–	0 (non-toxic (Normalized Cell number>0.65)	0 (non-toxic (Normalized Cell number>0.65)	0.7899	4447 and 4698 and 4741	0.7589 and 0.8017 and 0.809	0.8826	5415 and 4385 and 5891	0.9137 and 0.7399 and 0.9941	HIT	–
CCOC(=O)N1CCC(=C2c3ccc(Cl)cc3CCc3cccnc32)CC1 [Loratadine, loratadine]	–	–	−0.3263	−1.089	81.8	54	–	–	–	–	–	–	–	–	–	HIT (SARS-CoV-2): Yes; HIT (2 Stdv, 5 uM) (SARS-CoV-2): HIT
Cc1ccccc1-n1c(Cn2nc(-c3cccc(O)c3)c3c(N)ncnc32)nc2cccc(C)c2c1=O [PIK-294, pik-294]	–	–	–	–	–	–	0 (non-toxic (Normalized Cell number>0.65)	0 (non-toxic (Normalized Cell number>0.65)	0.7115	4346 and 3954 and 4208	0.7416 and 0.6747 and 0.7181	0.9038	5244 and 5589 and 5236	0.8849 and 0.9431 and 0.8835	–	–
